We go through 3 compounds from US8779146B2, “Cilostazol cocrystals and compositions” (Nuformix Limited, priority 2010, dated 2014).

Read-outs that look alike come from different tables or passages of the source.

A short description of data set [1]: Gravimetric vapour sorption (GVS) moisture sorption isotherm. Type of data set: physicochemical. The note with it: for moisture reversibly adsorbed: across the 0-90% relative humidity range at 25° C. under nitrogen; for solid form by XRPD analysis after completion of the isotherm: after GVS cycle 0-90% RH; for solid form by XRPD analysis after completion of the isotherm / hygroscopicity: 25° C.; for hygroscopicity: conclusion from GVS isotherm, 0-90% RH. Here is the method: Sorption isotherms were obtained using a SMS DVS Intrinsic moisture sorption analyser, controlled by DVS Intrinsic Control software v1.0.0.30. The sample temperature was maintained at 25° C. by the instrument controls. The humidity was controlled by mixing streams of dry and wet nitrogen, with a total flow rate of 200 ml·min^−1 The relative humidity was measured by a calibrated Rotronic probe (dynamic range of 1.0-100% RH), located near the sample. The weight change, (mass relaxation) of the sample as a function of % RH was constantly monitored by the microbalance (accuracy ±0.005 mg).
Typically 5-20 mg of sample was placed in a tared mesh stainless steel basket under ambient conditions. The sample was loaded and unloaded at 40% RH and 25° C. (typical room conditions). A moisture sorption isotherm was performed as outlined in Table 1 (2 scans giving 1 complete cycle). The standard isotherm was performed at 25° C. at 10% RH intervals over a 0.5-90% RH range. Data analysis was undertaken in Microsoft Excel using DVS Analysis Suite v6.0.0.7. The sample was recovered after completion of the isotherm and re-analyzed by XRPD.

For data set [2] the following is noted: dog, in vivo, po, 100 mg.
Procedure: (§1) A crossover study was carried out using 5 male beagle dogs with a washout period of 5 days between each treatment. Prior to dosing, the dogs were fasted overnight. The capsules were accurately filled with the amount of cilostazol or the corresponding cocrystal that was equivalent to 100 mg cilostazol. The capsules were orally administered to the dogs followed by about 10 mL of water. Food (about 250 g) was provided 4 hours post-dose to all animals.
(§2) Blood samples were collected at pre-dose, 15 and 30 minutes, and 1, 2, 3, 4, 6, 8, 10, 12 and 24 hour post-dose (12 time points) following oral dose administration. Approximately 0.8 ml of whole blood was withdrawn from the cephalic vein and placed in labelled tubes containing sodium heparin as anticoagulant (20 μL of 400 IU/mL sodium heparin solution per mL of blood). Plasma was separated by centrifuging the whole blood at about 2500 g for 10 minutes at 4° C. Separated plasma was stored below −70° C. until analysis.
(§3) A fit for purpose LC-MS/MS method was used for the determination of the cilostazol concentrations in the plasma samples. Pharmacokinetic parameters from individual samples were calculated using the non-compartmental analysis tool of the WinNonlin® software (version 5.2). The area under the plasma concentration curve (AUC) was calculated using the linear trapezoidal rule. Peak plasma concentration (Cmax) and the time taken to reach the peak plasma concentration (Tmax) were the observed values.
The conditions of data set [3]: cited from earlier work.
For data set [4] the following is noted: low solubility, high permeability drug; cited from earlier work.
Data set [5] can be described thus: Pharmacokinetic study, oral capsule, crossover, fasted beagle dogs. The note with it: male, dog, plasma, 100 mg.
Procedure: as §1, §2, §3

`O.O=C(O)c1cc(O)ccc1O.O=C1CCc2cc(OCCCCc3nnnn3C3CCCCC3)ccc2N1`: in data set [1], the moisture reversibly adsorbed stood at 0.1 % w/w, the “solid form by XRPD analysis after completion of the isotherm” value is “unchanged” and the hygroscopicity result is given as “not hygroscopic”.

As to `O=C(O)c1cc(O)ccc1O.O=C1CCc2cc(OCCCCc3nnnn3C3CCCCC3)ccc2N1` [1:1 cilostazol gentisic acid cocrystal], in data set [1], the moisture reversibly adsorbed is on record as below 0.3 % w/w, the “solid form by XRPD analysis after completion of the isotherm” value was “unchanged” and the hygroscopicity entry is “not hygroscopic”. In data set [2], the AUC (as a rule, the area under the concentration-time curve, a measure of exposure) was determined as 1216.37 ng·h/mL; the Cmax (commonly the peak of the concentration-time curve) is 471.42 ng/mL; the Tmax (commonly the time from dosing to the highest level) came to 1.00 h.

Regarding `O=C1CCc2cc(OCCCCc3nnnn3C3CCCCC3)ccc2N1` [Cilostazol, 6-[4-(1-cyclohexyl-1H-tetrazol-5-yl)butoxy]-3,4-dihydro-2(1H)-quinolinone], the solubility entry is listed as “practically insoluble” in data set [3] (in 0.1N HCl); “practically insoluble” in data set [3] (in 0.1N NaOH); “slightly soluble” in data set [3] (in ethanol); “slightly soluble” in data set [3] (in methanol); “practically insoluble” in data set [3] (in water). For the same compound, the BCS class entry in data set [4] is recorded as “Class II”. In data set [5], this compound gave an AUC of 371 ng·h/mL. In addition, the peak level in data set [5] (Cmax) was 81.5 ng/mL. Besides, the Tmax in data set [5] worked out at 2 h.
